# Assay results reported in ChEMBL document CHEMBL3745622 (Bioorg Med Chem, 2016).
# Legend:
# [1] = molecular target: T1, Tyrosinase (Agaricus bisporus) (UniProt O42713)
# T1 sequence (whole entry): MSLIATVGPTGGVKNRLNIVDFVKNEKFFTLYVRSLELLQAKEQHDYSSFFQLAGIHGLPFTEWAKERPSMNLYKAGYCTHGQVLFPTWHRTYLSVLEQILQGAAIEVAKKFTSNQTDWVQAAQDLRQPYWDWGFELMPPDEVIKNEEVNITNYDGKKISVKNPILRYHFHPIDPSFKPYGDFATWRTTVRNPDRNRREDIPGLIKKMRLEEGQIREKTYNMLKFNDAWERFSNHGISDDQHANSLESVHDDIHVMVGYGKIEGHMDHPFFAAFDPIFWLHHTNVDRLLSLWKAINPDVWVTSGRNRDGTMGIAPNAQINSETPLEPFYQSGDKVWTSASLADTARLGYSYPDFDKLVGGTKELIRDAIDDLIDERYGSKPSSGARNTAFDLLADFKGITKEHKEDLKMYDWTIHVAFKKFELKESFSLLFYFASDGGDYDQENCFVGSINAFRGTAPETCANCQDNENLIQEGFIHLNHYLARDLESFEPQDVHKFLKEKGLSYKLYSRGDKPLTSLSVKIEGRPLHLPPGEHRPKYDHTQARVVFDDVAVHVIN
# Description: (§1) Inhibition of monophenolase activity of mushroom tyrosinase using L-tyrosine as substrate preincubated with substrate for 10 mins followed by protein addition measured after 15 mins by spectrophotometric analysis
# Tyrosinase [2] = molecular target: T2, Tyrosinase (Agaricus bisporus, UniProt O42713)
# T2 sequence (O42713 whole entry): T1 sequence (whole entry)
# Tyrosinase [3] = molecular target: T2, Tyrosinase; remark: listed apart in the source
# Description: (§2) Inhibition of diphenolase activity of mushroom tyrosinase using L-DOPA as substrate preincubated with substrate for 10 mins followed by protein addition measured after 15 mins by spectrophotometric analysis
# Tyrosinase [4] = molecular target: T2, Tyrosinase; remark: listed apart in the source
# Description: as §1
# [5] = molecular target: T1, Tyrosinase (Agaricus bisporus); remark: listed apart in the source
# Description: as §2
# Tyrosinase [6] = molecular target: T2, Tyrosinase; test: Time dependent inhibition of monophenolase activity of mushroom tyrosinase using L-tyrosine as substrate measured every 30 secs by Morrison and Walsh plot analysis; details: read-out: Ki(app)
# B16 [7] = test: cells; details: Mus musculus, B16, 72 h
# Description: Inhibition of alpha-MSH-stimulated melanin production in mouse B16 cells after 72 hrs by microplate reader analysis
# in vitro = details: mouse, B16 cells
# Description: Cytotoxicity against mouse B16 cells assessed as cell viability after 72 hrs by MTT assay
# Tyrosinase [8] = molecular target: T2, Tyrosinase; remark: listed apart in the source
# Description: Competitive inhibition of diphenolase activity of mushroom tyrosinase using L-DOPA as substrate preincubated for 5 to 60 mins by Lineweaver-Burk and Dixon plot analysis
# B16 [9] = test: Potency index, ratio of kojic acid IC50 to compound IC50 for alpha-MSH-stimulated melanin production in mouse B16 cells; type: functional
Structure (SMILES),inhibition [1],Ki (Tyrosinase [2]),IC50 (Tyrosinase [3]),IC50 (Tyrosinase [4]),inhibition [5],Ki (Tyrosinase [6]),IC50 (B16 [7]),CC50 at 72 h (in vitro),Ki (Tyrosinase [8]),Ratio IC50 (B16 [9])
CC(C)=CCC/C(C)=C/Cc1c(O)ccc(-c2coc3cc(O)cc(O)c3c2=O)c1O,Dose-dependent effect,49.7 µM,> 200 µM,92 µM,Dose-dependent effect,,,,,
CC(C)=CCC/C(C)=C/Cc1c(O)ccc(C2COc3cc(O)cc(O)c3C2=O)c1O (stereo unspecified),Dose-dependent effect,1.8 µM,128 µM,2.9 µM,Dose-dependent effect,0.151 µM,42.3 µM,241 µM,76.4 µM,
CC(C)=CCC/C(C)=C/Cc1c(O)ccc(C2(O)COc3cc(O)cc(O)c3C2=O)c1O (stereo unspecified),Dose-dependent effect,7.5 µM,144 µM,18.4 µM,Dose-dependent effect,,,,81.4 µM,
CC(C)=CCC/C(C)=C/COc1ccc(-c2coc3cc(O)cc(O)c3c2=O)cc1O,,,> 200 µM,> 200 µM,,,,,,
CC(C)=CCCCC1(C)C=Cc2cc(-c3coc4cc(O)cc(O)c4c3=O)ccc2O1 (stereo unspecified),,,> 200 µM,> 200 µM,,,,,,
C/C(=C\Cc1ccc(-c2coc3cc(O)cc(O)c3c2=O)cc1O)CCCC(C)(C)O,,,> 200 µM,> 200 µM,,,,,,
CC(C)=CCc1c(O)ccc(C2COc3cc(O)c(CC=C(C)C)c(O)c3C2=O)c1O (stereo unspecified),,,> 200 µM,> 200 µM,,,,,,
COc1c2c(cc3c1C[C@H](c1ccc(O)cc1O)CO3)OC(C)(C)C=C2,Dose-dependent effect,0.019 µM,0.5 µM,0.03 µM,Dose-dependent effect,0.00148 µM,13 µM,104 µM,0.13 µM,200
COc1cc(C2COc3cc4c(c(OC)c3C2)C=CC(C)(C)O4)c(O)cc1O (stereo unspecified),,,> 200 µM,> 200 µM,,,,,,
COc1cc(O)ccc1C1COc2cc3c(c(O)c2C1=O)C=CC(C)(C)O3 (stereo unspecified),,,146 µM,> 200 µM,,,,,56.7 µM,
CC(C)=CCC/C(C)=C/Cc1cc(-c2coc3cc(O)cc(O)c3c2=O)ccc1O,,,> 200 µM,> 200 µM,,,,,,
COc1c(C2COc3cc(O)c(CC=C(C)C)c(O)c3C2=O)ccc(O)c1CC=C(C)C (stereo unspecified),,,> 200 µM,> 200 µM,,,,,,
CC(C)=CCC/C(C)=C/Cc1cc(C2Oc3cc(O)c(C)c(O)c3C(=O)C2=O)ccc1O (stereo unspecified),,,> 200 µM,> 200 µM,,,,,,
CC(C)=CCC/C(C)=C/Cc1cc(C2CC(=O)c3c(cc(O)c(C)c3O)O2)ccc1O (stereo unspecified),,,> 200 µM,> 200 µM,,,,,,
